1 compound from US20130190278A1, “Compounds for the Treatment/Prevention of Ocular Inflammatory Diseases” (Laboratoires Fournier SA, priority 2010, published 2013) can be followed below.

The subject of the test is dry eye induced by scopolamine and extractor hood. Description: Dry eye model (scopolamine + desiccation), tear production by Phenol Red test (PRTT). Type of test: in vivo, mice. To be noted: instillations of 0.1% twice a day. On the procedure: Dry eye is induced in mice by the combination of scopolamine, which blocks the muscarinic cholinergic receptors of lacrimal glands, and by placing the mice in an extractor hood that reduces humidity and increases air flow. The production and volume of aqueous tears, tear clearance, and the corneal barrier function are evaluated before treatment, and then twice a week after treatment. The results are compared between groups of untreated control mice, and groups of mice placed in the extractor hood, treated with the anticholinergic agent scopolamine, treated or not with tresperimus.
Male 129SV/CD-1 mice were used in this study and received three sub-cutaneous injections of 200 μl of scopolamine at 2.5 mg/mL in saline for 21 days. The mice were placed in an extractor hood (humidity <50%) during the whole experiment.
Tear production (PRTT) was measured with cotton threads impregnated with Phenol Red (Zone-quick; Menicon, Japan) applied to the ocular surface in the lateral canthus for 60 seconds. Wetting of the thread was measured in millimeters, using the scale on the cotton thread.

Turning to `C[C@@H]1C[C@H]2[C@@H]3CCC4=CC(=O)C=C[C@]4(C)[C@@]3(F)[C@@H](O)C[C@]2(C)[C@@]1(O)C(=O)CO` [dexamethasone], the “Tear volume (Phenol Red test)” value is on record as “no significant effect”.
